Measured values published in patent US20260022334A1, “COMPOSITION, METHOD, AND APPLICATION THEREOF FOR IMPROVING THE QUALITY OF IN VITRO MATURATION OF OOCYTES AND PREGNANCY RATE OF EMBRYOS AFTER IN VITRO FERTILIZATION” (CHINA AGRICULTURAL UNIVERSITY, priority 2024, published 2026).
Marks after values point to notes of the source that are not given here.

Experiments:
bovine oocytes (COCs) = assay: In vitro maturation of bovine oocytes, in vitro fertilization and embryo culture: embryo development rate; type: cell-based; details: for D8 blastocyst rate (%): 8 d postinsemination, number of blastocysts/number of oocytes; for effect on 48-h cleavage rate compared with the control group / effect on blastocyst development efficiency compared with the control group: in words; for 48-h cleavage rate (%): number of two-cell embryos/number of oocytes
Method: (§1) • Control group: a routine in vitro maturation group; • Treatment group 1: a VitC (100 μg/mL)—only administration group; • Treatment group 2: an L-carnitine (1 mg/mL)—only administration group; • Treatment group 3: a THPO (200 ng/mL)—only administration group; • Treatment group 4: a VitC (50 μg/mL) and L-carnitine (500 μg/mL) combined administration group; • Treatment group 5: a VitC (50 μg/mL) and THPO (100 ng/ml) combined administration group; • Treatment group 6: an L-carnitine (500 μg/mL) and THPO (100 ng/mL) combined administration group; • Treatment group 7: a VitC (33.3 μg/mL), L-carnitine (333.3 μg/mL), and THPO (66.7 ng/mL) combined administration group.
(§2) The control group was a basal in vitro maturation medium, and the treatment groups (1-7) were prepared by adding different components or combined components to the basal maturation medium.
Bovine ovaries were collected from a local slaughterhouse (Dachang Hui Autonomous County, Hebei Province, China) and transported to the laboratory within two hours in saline solution containing penicillin and streptomycin. In the laboratory, bovine COCs were aspirated from follicles with a diameter of 2-8 mm to M199-HEPES containing 20 μg/mL heparin sodium, 44 μg/mL sodium pyruvate, 70 μg/mL penicillin and 50 μg/mL streptomycin. The aspirated follicular fluid was placed in 50 ml conical tubes and maintained for a period for sedimentation. The upper portion of the liquid was removed and the remaining portion was then transferred to wash buffer. COCs with a homogenous, evenly granulated ooplasm surrounded by at least three layers of compact cumulus cells were selected under a stereomicroscope for experiments. COCs were washed three times in BO-IVM medium and incubated for 22 h at 38.5° C. in a humidified atmosphere under 5% CO2 in groups of 50 containing 500 μL BO-IVM medium in four-well dishes covered with mineral oil.
After 22 h of IVM, 20 COCs were transferred to 100 μL BO-IVF medium covered with mineral oil in Petri dish (60×15 mm). Frozen-thawed sperm was purified using BO-SemenPrep. Spermatozoa were selected by Percoll method and the final concentration was adjusted to 1×10^6 in each drop. They were co-incubated in BO-IVF medium with humidified 5% CO2 in air at 38.5° C. for 18 h. Thereafter, the presumptive zygotes were transferred to BO-IVC medium in four-well dishes covered with mineral oil, and incubated with humidified 5% CO2 in air at 38.5° C. for 8 days. The cleavage rate was determined at 48 h and the blastocyst rate was estimated at 8d postinsemination.

[1] = test system: ovine oocytes (cumulus-oocyte complexes); assay: In vitro maturation of ovine oocytes, in vitro fertilization and embryo culture: embryo development rate; type: cell-based, sheep; details: mean ± standard error; for Cleavage rate (%): 48 h after IVF, modulators added to in vitro maturation medium; for D7 blastocyst rate (%): day 7 of culture
Method: Ovine ovaries were collected in a slaughterhouse, placed in normal saline at 35° C., and transported to the laboratory within 2 h. The ovaries were washed three times with normal saline, and follicles were punctured using a 20 G needle containing 5 mL of oocyte collection medium to release cumulus-oocyte complexes. The COCs with uniform cytoplasm and at least 3 layers of cumulus cells were collected Under a stereomicroscope.
as §1, with “maturation group.” for “maturation group;”, “administration group.” for “administration group;”, “(100 ng/ml)” for “(100 ng/mL)”
as §2
The collected ovine oocytes were washed three times with washing medium, then washed 3 times with the basal in vitro oocyte maturation medium pre-equilibrated for 3 h in advance, transferred to the in vitro maturation culture mediums of the control and experimental groups, and incubated in a 5% CO2, 38.5° C. incubator with saturated humidity for 22-24 h. Four-well plates were used for culture, and each well contained 600 μL of in vitro maturation culture medium and 30-35 ovine cumulus-oocyte complexes, and was covered with 300 μL of mineral oil. In vitro maturation of ovine oocytes was performed according to different groups.
For the control group, the basal in vitro oocyte maturation medium was used. The basal in vitro oocyte maturation medium was prepared as follows: TCM199+10% estrus ovine serum+1 μg/mL follicle-stimulating hormone+1 μg/mL luteinizing hormone+1 μg/mL β-estradiol+12 μg/mL DL-cysteine+100 μg/mL streptomycin+100 IU/mL penicillin.
After in vitro maturation, the matured oocytes were subjected to in vitro fertilization (IVF). Briefly, COCs were washed three times in synthetic oviductal fluid (SOF) medium with 0.2% hyaluronidase to remove cumulus cells and transferred into the IVF medium, which consisted of synthetic oviduct fluid (SOF) medium containing 2% estrus sheep serum (ESS), 3 mg/mL BSA, 6 IU/mL heparin sodium and 50 IU/mL gentamicin. For IVF, frozen semen was removed from the liquid nitrogen and thawed in a water bath at 39° C. for 1 min. Then, the sperm diluted with IVF medium and swimming up for 30 min at 38.5° C. in a humidified atmosphere at 5% CO2. The upper layer of semen was transferred into a 1.5 mL tube and then centrifuge for 5 min at 2000 rpm. The spermatozoa were carefully collected from the bottom of the centrifuge tube and added into each IVF medium with a final concentration of approximately 1×10^6 sperm/mL. Then, the oocyte and sperm were co-incubated for 20 h at 38.5° C. with 5% CO2 in a humidified atmosphere. All reagents were purchased from Sigma-Aldrich.
After IVF, presumptive zygotes were washed three times in IVC medium and then transferred to SOF medium supplemented with 1% BME-essential amino acids, 1% MEM-nonessential amino acids, 1 mM glutamine and 3 mg/mL BSA and cultured at 38.6° C. in a humidified environment with an 88% N2, 5% CO2, 7% O2. The cleavage rate and blastocyst rate were recorded at 48 h and 6-7 d after IVF. After 48 h of culture, the cleavage rate was calculated. The culture was continued until day 7, and the blastocyst rate was calculated.

recipient ewes = assay: Ovine embryo transfer and pregnancy assessment; type: in vivo, sheep; details: for Pregnancy rate (%): 45 d after embryo transfer; for Number of pregnancies: B-ultrasonography 45 d after embryo transfer
Method: as §1, with “maturation group.” for “maturation group;”, “administration group.” for “administration group;”, “(100 ng/ml)” for “(100 ng/mL)”
Transferrable embryo were selected and one blastocyst was transferred into recipient ewes using a laparoscopic procedure. Prior to embryo transfer, the ewes were fasted for at least 20 h. The embryos were transplanted into recipients with an assistant of endoscopic apparatus. The conception was detected at 45 d after embryo transfer by using B-ultrasonography and the embryo transfer pregnancy rate was calculated using the formula: […]

bovine recipients = assay: Bovine embryo transfer and pregnancy rate assessment; type: in vivo; details: for Number of pregnancies: B-mode ultrasonography days 45-50; for Pregnancy rate (%): days 45-50, pregnant/recipient female animals
Method: as §1
The bovine recipients were restrained and anesthetized according to requirement of sartificial insemination. After the vulva was cleaned and disinfected, the cervix was opened and the fallopian tubes were flushed. The embryo transfer catheter was inserted deep into one uterine horn using the rectal palpation method. The plunger of a syringe connected to embryos transfer catheter was pushed to inject the embryos that had developed to the blastocyst stage after in vitro fertilization, and the embryo transfer catheter was then withdrawn. The pregnancy status was assessed by B-mode ultrasonography on days 45-50 of pregnancy, and the pregnancy rate was calculated.

ovine blastocysts = assay: Total number of blastocyst cells (DAPI staining) after in vitro maturation of ovine oocytes; type: cell-based, sheep; details: ovine 7d blastocysts, FIG. 3
Text: FIG. 3 Statistical analysis of the total number of blastocyst cells after different treatments of sheep oocyte in vitro maturation. Among them, the control group is a routine in vitro maturation group, and treatment groups 1-7 are: VitC alone group, L-carnitine alone group, THPO alone group, VitC and L-carnitine combined administration group, VitC and THPO combined administration group, L-carnitine and THPO combined administration group, VitC, L-carnitine, and THPO combined administration group. The total number of blastocyst cells were obtained by counting cells after DAPI immunofluorescence staining.
as §1, with “maturation group.” for “maturation group;”, “administration group.” for “administration group;”, “(100 ng/ml)” for “(100 ng/mL)”
The 7d blastocysts were collected, washed 3 times with PBS containing 1 mg/ml PVA (PBS-PVA), and stained with DAPI, and the total blastocyst cell number was then determined. Specifically, the zona pellucida was removed with Tyrode's medium, and the blastocysts were then fixed in PBS containing 4% polyformaldehyde for 30 min and permeabilized using PBS containing 0.5% TritonX-100 for 20 min at room temperature. The nuclei of the blastocysts were stained with 1 μg/mL DAPI, incubated for 5 min in the dark, and then mounted onto slides. DAPI cells were observed and counted under a fluorescence microscope.

Compound | D8 blastocyst rate (%) (bovine oocytes (COCs)) | effect on 48-h cleavage rate compared with the control group (bovine oocytes (COCs)) | effect on blastocyst development efficiency compared with the control group (bovine oocytes (COCs)) | 48-h cleavage rate (%) (bovine oocytes (COCs)) | Cleavage rate (%) [1] | D7 blastocyst rate (%) [1] | Pregnancy rate (%) (recipient ewes) | Number of pregnancies (recipient ewes) | Number of pregnancies (bovine recipients) | Pregnancy rate (%) (bovine recipients) | effect on pregnancy rate after embryo transfer compared with the control group (bovine recipients; in words) | total number of blastocyst cells (ovine blastocysts)
C[N+](C)(C)C[C@H](O)CC(=O)[O-] [Treatment group 2, L-carnitine] | 32.4 ± 0.8^b % | did not affect | enhanced | 69.5 ± 4.3% | 74.32 ± 2.31^a % | 37.61 ± 1.85^b % | 54.2^a % | 26 | 12 | 46.2%^b | can improve | 82.6±2.7
Thrombopoietin [Treatment group 3] | 32.2 ± 2.0^b % |  |  | 67.4 ± 3.8% | 75.38 ± 2.43^a % | 38.01 ± 1.50^b % | 53.1^a % | 26 | 11 | 42.3%^a |  | 79.4±2.3
O=C1O[C@H]([C@@H](O)CO)C(O)=C1O [Treatment group 1, vitamin C] | 33.1 ± 1.3^b % | did not affect | enhanced | 68.7 ± 3.1% | 75.64 ± 2.83^a % | 38.79 ± 1.97^b % | 50.0^a % | 25 | 11 | 42.3%^a |  | 80.6±3.2
